Converted amounts (≈) assume the structure as drawn.
Experiments:
Test in all cases: Anti-microbial activity test in vitro (agar dilution MIC)
[1] = system: S. pyogenes C6012; type: cell-based; conditions: S. pyogenes C6012; Agar Dilution method, Mueller Hinton Agar, 18 hours at 37° C.
How it was run: (§1)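 Agar dilution MIC on Mueller Hinton agar with two-fold compound dilutions; plates incubated 18 h at 37 °C. MIC (μg/ml) read visually; linezolid and vancomycin run as comparators.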

[2] = system: E. faecium C6301; type: cell-based; conditions: E. faecium C6301; Agar Dilution method, Mueller Hinton Agar, 18 hours at 37° C.
How it was run: as §1

[3] = system: S. epidermidis C2235; type: cell-based; conditions: S. epidermidis C2235; Agar Dilution method, Mueller Hinton Agar, 18 hours at 37° C.
How it was run: as §1

[4] = system: S. epidermidis C2230; type: cell-based; conditions: S. epidermidis C2230; Agar Dilution method, Mueller Hinton Agar, 18 hours at 37° C.
How it was run: as §1

[5] = system: E. faecalis C6288; type: cell-based; conditions: E. faecalis C6288; Agar Dilution method, Mueller Hinton Agar, 18 hours at 37° C.
How it was run: as §1

[6] = system: E. faecium C2252; type: cell-based; conditions: E. faecium C2252; Agar Dilution method, Mueller Hinton Agar, 18 hours at 37° C.
How it was run: as §1

[7] = system: E. faecalis ATCC29212; type: cell-based; conditions: E. faecalis ATCC29212; Agar Dilution method, Mueller Hinton Agar, 18 hours at 37° C.
How it was run: as §1

[8] = system: S. pyogenes ATCC8668; type: cell-based; conditions: S. pyogenes ATCC8668; Agar Dilution method, Mueller Hinton Agar, 18 hours at 37° C.
How it was run: as §1

[9] = system: S. pyogenes C6003; type: cell-based; conditions: S. pyogenes C6003; Agar Dilution method, Mueller Hinton Agar, 18 hours at 37° C.
How it was run: as §1

[10] = system: S. epidermidis ATCC12228; type: cell-based; conditions: S. epidermidis ATCC12228; Agar Dilution method, Mueller Hinton Agar, 18 hours at 37° C.
How it was run: as §1

[11] = system: S. aureus ATCC 29213; type: cell-based; conditions: Agar Dilution method, Mueller Hinton Agar, 18 hours at 37° C.
How it was run: as §1

[12] = system: E. faecalis C6291; type: cell-based; conditions: E. faecalis C6291; Agar Dilution method, Mueller Hinton Agar, 18 hours at 37° C.
How it was run: as §1

[13] = system: MSSA C2214; type: cell-based, Staphylococcus aureus; conditions: MSSA C2214; Agar Dilution method, Mueller Hinton Agar, 18 hours at 37° C.
How it was run: as §1

[14] = system: MRSA C2207; type: cell-based, Staphylococcus aureus; conditions: MRSA C2207; Agar Dilution method, Mueller Hinton Agar, 18 hours at 37° C.
How it was run: as §1

[15] = system: CRSA C1062; type: cell-based, Staphylococcus aureus; conditions: CRSA C1062; Agar Dilution method, Mueller Hinton Agar, 18 hours at 37° C.
How it was run: as §1

[16] = system: CRSA C6043; type: cell-based, Staphylococcus aureus; conditions: CRSA C6043; Agar Dilution method, Mueller Hinton Agar, 18 hours at 37° C.
How it was run: as §1

[17] = system: MRSA C6068; type: cell-based, Staphylococcus aureus; conditions: MRSA C6068; Agar Dilution method, Mueller Hinton Agar, 18 hours at 37° C.
How it was run: as §1

[18] = system: MSSA C7142; type: cell-based, Staphylococcus aureus; conditions: MSSA C7142; Agar Dilution method, Mueller Hinton Agar, 18 hours at 37° C.
How it was run: as §1

[19] = system: MRSA C5100; type: cell-based, Staphylococcus aureus; conditions: MRSA C5100; Agar Dilution method, Mueller Hinton Agar, 18 hours at 37° C.
How it was run: as §1

[20] = system: VRE C6487; type: cell-based, Enterococcus faecium; conditions: VRE C6487; Agar Dilution method, Mueller Hinton Agar, 18 hours at 37° C.
How it was run: as §1

[21] = system: VRE C6488; type: cell-based, Enterococcus faecium; conditions: VRE C6488; Agar Dilution method, Mueller Hinton Agar, 18 hours at 37° C.
How it was run: as §1

SMILES	Minimum inhibition concentration (MIC) [1]	Minimum inhibition concentration (MIC) [2]	Minimum inhibition concentration (MIC) [3]	Minimum inhibition concentration (MIC) [4]	Minimum inhibition concentration (MIC) [5]	Minimum inhibition concentration (MIC) [6]	Minimum inhibition concentration (MIC) [7]	Minimum inhibition concentration (MIC) [8]	Minimum inhibition concentration (MIC) [9]	Minimum inhibition concentration (MIC) [10]	Minimum inhibition concentration (MIC) [11]	Minimum inhibition concentration (MIC) [12]	Minimum inhibition concentration (MIC) [13]	Minimum inhibition concentration (MIC) [14]	Minimum inhibition concentration (MIC) [15]	Minimum inhibition concentration (MIC) [16]	Minimum inhibition concentration (MIC) [17]	Minimum inhibition concentration (MIC) [18]	Minimum inhibition concentration (MIC) [19]	Minimum inhibition concentration (MIC) [20]	further results
CC(=O)NC[C@H]1CN(c2ccc(N3CCC(=CC(C)OC(C)=O)CC3)c(F)c2)C(=O)O1 (stereo partly drawn) [Compound 23, N-[[(5S)-3-[3-fluoro-4-(4-(2-acetoxypropylidene)-piperidinyl)phenyl]-2-oxo-5-oxazolidinyl]methyl]acetamide]	2 mg/L (≈ 4.61 µM)	8 mg/L (≈ 18.5 µM)	8 mg/L (≈ 18.5 µM)	8 mg/L (≈ 18.5 µM)	8 mg/L (≈ 18.5 µM)	8 mg/L (≈ 18.5 µM)	8 mg/L (≈ 18.5 µM)	0.5 mg/L (≈ 1.15 µM)	8 mg/L (≈ 18.5 µM)	2 mg/L (≈ 4.61 µM)	16 mg/L (≈ 36.9 µM)	8 mg/L (≈ 18.5 µM)	16 mg/L (≈ 36.9 µM)	8 mg/L (≈ 18.5 µM)	16 mg/L (≈ 36.9 µM)	16 mg/L (≈ 36.9 µM)	8 mg/L (≈ 18.5 µM)	16 mg/L (≈ 36.9 µM)	16 mg/L (≈ 36.9 µM)	4 mg/L (≈ 9.23 µM)	Minimum inhibition concentration (MIC) [21]: 4 mg/L (≈ 9.23 µM)
CC(=O)NC[C@H]1CN(c2ccc(N3CCC(=CC(C)OC(=O)CCl)CC3)c(F)c2)C(=O)O1 (stereo partly drawn) [Compound 24, N-[[(5S)-3-[3-fluoro-4-(4-(2-(chloroacetoxy)propylidene)-piperidinyl)-phenyl]-2-oxo-5-oxazolidinyl]methyl]acetamide]	2 mg/L (≈ 4.27 µM)	8 mg/L (≈ 17.1 µM)	8 mg/L (≈ 17.1 µM)	8 mg/L (≈ 17.1 µM)	16 mg/L (≈ 34.2 µM)	16 mg/L (≈ 34.2 µM)	8 mg/L (≈ 17.1 µM)	2 mg/L (≈ 4.27 µM)	8 mg/L (≈ 17.1 µM)	2 mg/L (≈ 4.27 µM)	16 mg/L (≈ 34.2 µM)	16 mg/L (≈ 34.2 µM)	16 mg/L (≈ 34.2 µM)	16 mg/L (≈ 34.2 µM)	8 mg/L (≈ 17.1 µM)	16 mg/L (≈ 34.2 µM)	8 mg/L (≈ 17.1 µM)	16 mg/L (≈ 34.2 µM)	16 mg/L (≈ 34.2 µM)	4 mg/L (≈ 8.55 µM)	Minimum inhibition concentration (MIC) [21]: 4 mg/L (≈ 8.55 µM)
CC(=O)NC[C@H]1CN(c2ccc(N3CCC(=CC(C)OC(=O)C(Cl)Cl)CC3)c(F)c2)C(=O)O1 (stereo partly drawn) [Compound 25, N-[[(5S)-3-[3-fluoro-4-(4-(2-(dichloroacetoxy)propylidene)-piperidinyl)-phenyl]-2-oxo-5-oxazolidinyl]methyl]acetamide]	2 mg/L (≈ 3.98 µM)	8 mg/L (≈ 15.9 µM)	8 mg/L (≈ 15.9 µM)	8 mg/L (≈ 15.9 µM)	8 mg/L (≈ 15.9 µM)	8 mg/L (≈ 15.9 µM)	8 mg/L (≈ 15.9 µM)	2 mg/L (≈ 3.98 µM)	8 mg/L (≈ 15.9 µM)	2 mg/L (≈ 3.98 µM)	16 mg/L (≈ 31.8 µM)	8 mg/L (≈ 15.9 µM)	16 mg/L (≈ 31.8 µM)	16 mg/L (≈ 31.8 µM)	16 mg/L (≈ 31.8 µM)	16 mg/L (≈ 31.8 µM)	8 mg/L (≈ 15.9 µM)	16 mg/L (≈ 31.8 µM)	8 mg/L (≈ 15.9 µM)	4 mg/L (≈ 7.96 µM)	Minimum inhibition concentration (MIC) [21]: 4 mg/L (≈ 7.96 µM)

From patent US20040087633A1, “Methylidene oxazolidinone compound and preparation method thereof” (Korea Institute of Science and Technology, priority 2002, published 2004)
